For data set [1], the system named is E. coli K88. Type of data set: cell-based. The following applies: sublethal levels, daily sequential passages. On the procedure:
To quantify the production status of the bacteria, the bacterial density was measured after incubating for 24 h. Cultures with the second highest concentration allowed to grow (OD600 ≥ 2) were diluted 1:100 with MccJ25 MHB at different concentrations than those described above. Cultures that grew above the indicated MIC levels were plated on LB agar plates, and their MIC levels were determined by the broth macrodilution method.

Data set [2] deals with E. coli K88. As to the kind of experiment: MIC variability (cross-resistance) after 5 days at sub-MIC. It is filed as cell-based. Conditions: after culture under ampicillin (0.25 × MIC) for 5 days. On the procedure:
A 1:100 dilution of the bacteria was performed daily in the above MHB. Aliquots of the culture medium were used daily for 5 days thereafter to determine the MICs of ampicillin, tetracycline, aureomycin, and kanamycin. This study was performed based on our previous study ([29]).

For data set [3] the following is noted: remaining peptide by RP-HPLC, n = 6. The procedure: (§1) Figure 3 Stability and activity of MccJ25 in different conditions and biological fluids. Various concentration of MccJ25 was incubated with different temperatures (A), pH values (B), (C) SIF, SGF, and serum. Proteases (D-F) for different indicated times. Afterwards, the amount of the remaining MccJ25 was determined by RP-HPLC. […] NE: negative control; Chy: chymotrypsin. […] Effects of temperature (G), RT: room temperature, pH values (H), proteases (I), SGF (J), SIF (K), and serum (L) on the inhibition of E coli K88 by MccJ25. The zone of inhibition is often used to clarify the antimicrobial activity of MccJ25. […] Chy refers to chymotrypsin. Data are presented as the mean of 6 biological replicates ± standard error of mean form.

The conditions of data set [4]: RP-HPLC. The procedure:
(§2) The simulated gastric fluid (SGF) and simulated intestinal fluid (SIF) were mainly based on the relevant contents of the Chinese Pharmacopoeia as described previously ([26]). SGF was configurated with 10 mg/mL pepsin, 0.03 M NaCl was used to blend the pH to 1.5, while SIF was configured with 10 mg/mL trypsin, 0.05 M KH2PO4 was used to blended pH as 7. SGF and SIF were then measured separately, and the antimicrobial activity of MccJ25 in serum was determined. E. coli K88 cells were grown in MHB (Difco Laboratories, Detroit, MI, USA). In short, 1 mL of the bacterial suspension and MccJ25 were transferred into 9 mL of medium. The control group was as follows: no MccJ25 was added to it. E. coli K88 cells with a live cell count maintained at approximately 10^5 cells per milliliter were inoculated on LB agar, which was then poured into plates equipped with Oxford cups, thus forming wells. Then, MccJ25 (1 × MIC) previously treated with SGF, SIF and serum for 2, 4, and 6 h was added to these wells. One of the agar substances covering the wells needs to be incubated overnight at 37°C, and finally, the size of its growth inhibition area, i.e., the diameter, needs to be determined.
Figure 3 Stability and activity of MccJ25 in different conditions and biological fluids. […] Afterwards, the amount of the remaining MccJ25 was determined by RP-HPLC. […]

Data set [5] in a line: in vitro. The procedure:
as §2, §1

Data set [6] in a line: in vitro. On the procedure: (§3) The resistance of MccJ25 to pepsin, trypsin and chymotrypsin was evaluated based on previous studies ([26]), with minor modifications. E. coli K88 cells were prepared (approximately 1 × 10^7 CFU/mL), and 1 mL of the bacterial suspension and MccJ25 were transferred into 9 mL of medium. For the control, MccJ25 was not added. LB agar inoculated with E. coli K88 cells (~10^5 viable cells/mL) was poured onto a plate containing an Oxford cup to form individual wells. Then, 2 and 4 h MccJ25 (1 × MIC) previously subjected to different treatments were added to the wells. The agar overlay was incubated overnight at 37°C, and the diameter of the growth inhibition zone was measured.
as §1
The source holds these as a separate data set.

For data set [7], the system named is chymotrypsin. Kind of data set: in vitro. Conditions: RP-HPLC. On the procedure:
as §3, §1

Data set [8] relates to RAW264.7 cells. Kind of data set: MTT cytotoxicity assay. It is filed as cell-based, murine. Conditions: different concentrations of MccJ25 up to 512 μg/mL, 24 h, 37°C; vs control; n = 6. The procedure: (§4) To test whether MccJ25 could have an effect on the metabolic activity of the cells, the necessary MTT assay was performed (Roche Molecular Biochemistry, Mannheim, Germany) as previously described ([28], [29]). The whole operation process can be briefly summarized as follows: first, various concentration gradients of MccJ25 solution were added, the ambient temperature of the cell secondary incubation was maintained at 37°C, the CO2 concentration was maintained at 5%, and the incubation time needed to reach 24 h. The control group was the cells without any treatment. Afterwards, 20 μL of MTT solution (concentration 5 mg/mL, medium DPBS) was added to all wells and incubated for 3.5 h at a temperature of 37°C and a CO2 concentration of 5%. Components of the medium were removed by centrifugation, and the MTT metabolites were resuspended in 200 μL of dimethyl sulfoxide. The absorbance value at 560 nm was measured, and the background value was the absorbance at 670 nm, which needed to be subtracted from the background value to obtain the absorbance value.

For data set [9], the system named is Caco-2 cells. As to the kind of experiment: MTT cytotoxicity assay. It is filed as cell-based, human. The following applies: different concentrations of MccJ25 up to 512 μg/mL, 24 h, 37°C; vs control; n = 6. The procedure:
as §4
For orientation: Tetrazolium assays rely on reduction of a dye to a coloured formazan, in cell work by metabolically active cells.

Data set [10] has as its system Caco-2 cells. Conditions: 2 to 512 μg/mL MccJ25, 24 h, 37°C; n = 6. The procedure: (§5) Certain adjustments were made to Dulbecco’s modified Eagle’s medium (DMEM), i.e., 20% fetal bovine serum (FBS) was added, and human colon cancer cell line Caco-2 and murine cell line macrophage RAW264.7 cells were inoculated into the adjusted medium, with the inoculum density maintained at 2 × 10^4 cells/mL, placed in 96-well plates until the overall confluence ratio reached 80% to 90%, respectively.
(§6) The secretion of the cell membrane enzyme lactate dehydrogenase (LDH) was measured on the basis of a colorimetric assay. Caco-2 and RAW264.7 cells (2 × 10^4 cells/well) as controls without or with concentrations of 2 to 512 μg/mL MccJ25 were incubated for 24 h at 37°C in 5% CO2. A simple step was to transfer 100 μL of cell culture medium from each well to a new 96-well plate and measure the activity of LDH based on the LDH cytotoxicity assay kit (Clontech, Mountain View, CA, USA) according to the manufacturer’s instructions. The catalyst and dye solutions were mixed well and added to the wells containing cell culture medium and then incubated for 30 min at room temperature. The absorbance at 490 and 670 nm was measured with a microplate reader (Model SynergyMx, BioTek, Winooski, VT, USA). Absorbance values were corrected by subtracting the […].

Data set [11] deals with RAW264.7 cells. The following applies: 2 to 512 μg/mL MccJ25, 24 h, 37°C; n = 6. On the procedure:
as §5, §6

Data set [12] relates to mouse erythrocytes (mRBCs). The following applies: 512 μg/mL (highest concentration), 8% RBCs in PBS, 37°C, 1 h, A414. The procedure:
(§7) Fresh mouse/pig erythrocytes (mRBCs/pRBCs) were collected from well-grown animals, centrifuged at 4,200 rpm and washed well with phosphate-buffered saline (PBS) to ensure that their supernatants were free of impurities and remained clear. The liquid was added to the 96-well plate after 2-fold dilution of MccJ25 prepared with PBS, and the final concentration of RBCs was introduced at 8%. The plate was stirred less vigorously to homogenize the liquid and incubated at 37°C for 1 h. The supernatant was then centrifuged at 4,500 rpm for 10 min, and its absorbance value at 414 nm was measured. Three replicate groups were set up for all the above experiments, and the percentage hemolysis was calculated as follows: percentage hemolysis = [(A414 in peptide solution - A414 in PBS)/(A414 in […] - A414 in PBS)]. ×100, where 100% hemolysis refers to the absorbance of RBCs exposed to 1% Triton X-100 in the environment and 0% hemolysis refers to the absorbance of RBCs exposed to PBS. The positive control used in this experiment was melittin.

Data set [13] has as its system pig erythrocytes (pRBCs). The following applies: 512 μg/mL (highest concentration), 8% RBCs in PBS, 37°C, 1 h, A414. On the procedure:
as §7

The subject of data set [14] is IPEC-J2 cells. Conditions: previous study; ref [29]; cited from earlier work. The source says: Microcins, AMPs, are a large class of antimicrobial agents that can be employed in the treatment of various infectious diseases. […] Cytotoxicity, including the hemolysis of erythrocytes, is one of the main factors limiting the practical application of AMPs. Therefore, it is crucial to have a clear understanding of the c ...

Structures are written as SMILES. “Also recorded” adds a separate entry of the source. Where a SMILES comes first, the peptide text is derived from it. Bridges are numbered along the chain shown (N, C = ends). Bounds are passed on as bounds.

`CC1(C)S[C@@H]2[C@H](NC(=O)[C@H](N)c3ccccc3)C(=O)N2[C@H]1C(=O)O` [ampicillin]: the “time of serial passage until resistance” value in data set [1] is at most 4 days. The “elevation of the MIC of the antibiotic” value in data set [2] worked out at 2 fold.

As for `CC[C@H](C)[C@H](NC(=O)CNC(=O)[C@@H](NC(=O)[C@H](Cc1ccccc1)NC(=O)[C@H](Cc1ccc(O)cc1)NC(=O)[C@@H]1CCC(=O)NCC(=O)NCC(=O)N[C@@H](C)C(=O)NCC(=O)N[C@@H](Cc2cnc[nH]2)C(=O)N[C@@H](C(C)C)C(=O)N2CCC[C@H]2C(=O)N1)C(C)C)C(=O)NCC(=O)N[C@H](C(=O)N1CCC[C@H]1C(=O)N[C@H](C(=O)N[C@@H](CO)C(=O)N[C@@H](Cc1ccccc1)C(=O)N[C@@H](Cc1ccc(O)cc1)C(=O)NCC(=O)O)[C@@H](C)CC)[C@@H](C)O` [MccJ25, microcin J25] (GGAGHVPEYFVGIGTPISFYG-OH; lactam N-8), the “stability of intact MccJ25 at high temperature” value in data set [3] (121°C, 20 min) is given as “able to maintain its own steady state”. The “stability of intact MccJ25 at different pH” value in data set [3] (pH 2.0 to 9.0, 2 h) is given as “able to maintain its own steady state”. In addition, in data set [4] (SGF pH 1.5, 10 mg/mL pepsin, 6 h), the “intact MccJ25 after 6 h of incubation in SGF” value is recorded as “still present”. Besides, in data set [4] (SGF: 10 mg/mL pepsin, 0.03 M NaCl, pH 1.5, up to 6 h, n = 6), the “concentration of intact MccJ25 in SGF” value is given as “decreased slowly”. Besides, the “intact MccJ25 after 6 h of incubation in serum” value in data set [5] (6 h, RP-HPLC) is on record as “still present”. Besides, the “intact MccJ25 after 6 h of incubation in SIF” value in [5] (SIF pH 7, 10 mg/mL trypsin, 6 h, RP-HPLC) is given as “still present”. The half-life (in general, the time needed for the level to fall by half in the phase considered) was 240 min in data set [5] (mouse, serum) and 120 min in [5] (simulated intestinal fluid (SIF) with 10 mg/mL trypsin, pH 7). Further, in [6] (chymotrypsin (isolated protease)), the metabolised at 1 h came to 70%. Further, the fraction remaining at 6 h in [6] (pepsin (isolated protease)) and in data set [6] (trypsin (isolated protease)) was over 70% in each case. In addition, the “level of intact MccJ25 exposed to chymotrypsin” value in data set [7] (2 and 4 h) is reported as “below the detection limit”. Also, the “intact MccJ25 after exposure to chymotrypsin” value in data set [7] (after 6 h) is “below the detection limit”. The “cell viability (MTT)” value in data set [8] and in data set [9] was “nontoxic; also recorded: no significant differences in cell survival” each time. Also, the “LDH activity (plasma membrane integrity)” value in data set [10] and in [11] was “did not stimulate LDH activity” throughout. In addition, the hemolysis was found to be 4.16% in data set [12] and 4.07% in data set [13]. In data set [14], the cytotoxicity entry is reported as “not cytotoxic”.

`CN(C)[C@@H]1C(O)=C(C(N)=O)C(=O)[C@@]2(O)C(O)=C3C(=O)c4c(O)cccc4[C@@](C)(O)[C@H]3C[C@@H]12` [tetracycline]: the “time of serial passage until resistance” value in [1] was at most 3 days. Moreover, the “elevation of the MIC of the antibiotic” value in data set [2] is recorded as 2 fold.

Take `O=C(O)c1cn(C2CC2)c2cc(N3CCNCC3)c(F)cc2c1=O` [ciprofloxacin]: in data set [2], the “elevation of the MIC of the antibiotic” value is listed as 2 fold.

As for `NC[C@H]1O[C@H](O[C@H]2[C@H](O)[C@@H](O[C@H]3O[C@H](CO)[C@@H](O)[C@H](N)[C@H]3O)[C@H](N)C[C@@H]2N)[C@H](O)[C@@H](O)[C@@H]1O` [kanamycin], the “elevation of the MIC of the antibiotic” value in [2] is listed as 2 fold.

The values above are taken from paper PMC8894198, “Biosynthetic Microcin J25 Exerts Strong Antibacterial, Anti-Inflammatory Activities, Low Cytotoxicity Without Increasing Drug-Resistance to Bacteria Target” (Frontiers in Immunology, 2022).
